Experimental data from patent US20080261234A1, “Peptides and their use in assays for cardiovascular disease” (priority 2000, published 2008).
Where no end group is shown, it is not given here.

Columns and labels:
[1] = test system: autoantibodies against oxLDL in serum samples; assay: Peptide EIA: autoantibodies against peptides and peptide-MDA complexes; type: binding, human; parameters: key to reaction of autoantibodies (mean ±SD): absorbance at 450 nm, blank subtracted; details: for reaction of autoantibodies (mean ±SD): plate coated with natp63, MDA and MDAp63; for amount of autoantibodies, mean absorbance after subtracting the blank: Patients (n = 20), six forms of p63 peptide antigen; for Reactivity of autoantibodies, absorbance (PEPTIDE EIA): absorbance at 450 nm, serum 1:20; for MDAp63:natp63 ratio: after subtracting the blank
Procedure: Native and MDA-modified peptides were tested always on the same plate. One half of the plate was coated with the native peptide (20 μg/ml) and the other half was coated with the MDA-modified peptide [(20 μg/ml) 100 μl/well in 100 mmol/l bicarbonate buffer (pH 9.5)]. Coated plates were incubated overnight at room temperature (RT) and then washed with an automatic washer (Wellwash 4 MK II, Labsystems Oy) three times with phosphate buffered saline (PBS) containing 0.05% Tween 20. Plates were blocked with PBS containing 1% human serum albumin (HSA) (150 μl/well) for 1 h at RT and washed as above. Serum samples were diluted 1:20 in PBS containing 0.2% HSA and 0.05% Tween 20 and pipetted 100 μl/well. Plates were incubated for 2 h at RT and washed as above. HRP-conjugated anti-human IgG (diluted 1:20 000 in the sample buffer) was added (100 μl) to each well and incubated for 1 h at RT. After washing, colour was developed by adding the peroxidase substrate (tetramethylbenzidine (TMB) as a chromagen, 100 μl/well) and incubating the plates for 30 min at room temperature in the dark. The reaction was stopped with 0.5 mol/l H2SO4 (100 μl/well) and absorbances were measured at 450 nm (Multiskan microplate reader, Labsystems Oy). The results are shown in Table 2 and are expressed as the absorbance measurement obtained for the native and the modified peptides or as the ratio between antibody binding to the native and the modified peptides after subtracting the blank control.
To find out whether autoantibodies react with the peptide, with MDA or both when peptide-MDA complexes are used as antigen, a microtiter plate was coated with natp63, MDA and MDAp63 antigen and the immunoassays performed. MDA antigen was prepared as MDAp63 antigen but without peptide and MDA was diluted for coating in the same way as MDAp63.

[2] = test system: antibodies of patient samples binding to coated peptide; assay: Inhibition test: increasing concentrations of peptide added to sample diluent in peptide EIA; parameters: species or system human; details: inhibitor 100 μg/ml
Procedure: The specificity of cyclic (p244cyc) and the corresponding linear peptide (p244) were tested in inhibition tests by adding increasing concentrations of peptides to sample diluent. P244cyc peptide inhibited with the highest inhibitor concentration (100 μg/ml), the average being 61% of the binding of 8 patient samples (FIG. 2A); 3 samples were inhibited by less than 50%. P244 inhibited with the highest inhibitor concentration (100 μg/ml), the average being 70% of the binding of 24 patient samples (FIG. 2B). 3 samples were inhibited less than 50%. P244 seemed to be more specific than p244cyc peptide. Finally, it was confirmed that the epitope of p244 is similar to p63 by coating plate with p244 and inhibiting the binding of patient samples with p63. P63 inhibited with the highest inhibitor concentration (100 μg/ml), the average being 53% of the binding of 22 patient samples (FIG. 3). 9 samples were inhibited less than 50%.

[3] = test system: antibodies of patient samples against the peptides; assay: Specificity test: peptide EIA with 0.5 M sodium chloride added to sample diluent; type: binding, human; details: mean of 20 patient samples
Procedure: The specificity of different antigens was tested by titration of peptides. […] In addition, the specificity of antibodies against cyclic and linear peptides, p244cyc and p244, was tested by adding 0.5 M sodium chloride to sample diluent. The titer of patient samples against p244, p244cyc and p63-MDA was 19%, 38% and 47% lower (mean of 20 patient samples), respectively, when salt was added to sample diluent. It appears that antibodies against p244 have the best specificity.

[4] = test system: autoantibodies against oxLDL in serum samples; assay: OxLDL EIA with copper-oxidized human LDL as antigen; type: binding; details: for Reactivity of autoantibodies, absorbance (OxLDL EIA): absorbance at 450 nm
Procedure: Various native and modified peptides, derived from the amino acid sequence of apoB-100 (Chen et al., supra), were tested as antigens suitable for use in EIA. The peptides were modified with MDA to produce similar oxidation specific epitopes as in oxLDL. The results of peptide EIA are compared to the results of oxLDL EIA which was optimized using copper-oxidized LDL as antigen; see Närvänen et al., Free Radical Biology & Medicine, in press.

Compound | reaction of autoantibodies (mean ±SD) ([1]; control samples, n=23) | reaction of autoantibodies (mean ±SD) ([1]; patient samples, n=16) | amount of autoantibodies, mean absorbance after subtracting the blank [1] | titer of patient samples lower when salt was added to sample diluent [3] | other results
O=CCC=O [MDA, Malondialdehyde, reference compound] | 0.300±0.019 | 0.338±0.000 |  |  | 
LSVKAQYKKNKHRHSITNPL [p63, 2, 20 amino acids, 4 lysines] | 0.282±0.100 | 0.222±0.041 | 0.389— |  | Reactivity of autoantibodies, absorbance (PEPTIDE EIA) ([1]; healthy controls (n = 17)): 0.216 ± 0.142; Reactivity of autoantibodies, absorbance (PEPTIDE EIA) ([1]; patients (n = 19)): 0.159 ± 0.079; average inhibition of the binding of patient samples ([2]; 22 patient samples, plate coated with p244, inhibited with p63): 53%
MDAp63: p63 modified with MDA (LSVKAQYKKNKHRHSITNPL; also: malondialdehyde (MDA) coupled via primary amines of lysines) | 0.533±0.077 | 0.431±0.040 | 0.601— | 47% | Reactivity of autoantibodies, absorbance (PEPTIDE EIA) ([1]; healthy controls (n = 17)): 0.497 ± 0.184; MDAp63:natp63 ratio ([1]; healthy controls (n = 17)): 2.592 ± 0.751; Reactivity of autoantibodies, absorbance (PEPTIDE EIA) ([1]; patients (n = 19)): 0.418 ± 0.141; MDAp63:natp63 ratio ([1]; patients (n = 19)): 2.866 ± 0.924
P63-PEA-MDA: p63 modified with MDA and phosphatidylethanolamine (LSVKAQYKKNKHRHSITNPL; also: modified with MDA and phosphatidylethanolamine) [Peptide P63-PEA-MDA] |  |  | 0.406— |  | 
P244cyc-MDA: cyclic p63 modified with MDA (CGLSVKAQYKKNKHRHSITNPLGC; also: cyclic (mode not given here), modified with MDA) [Peptide P244cyc-MDA] |  |  | 0.521— |  | 
natLDL: native human low density lipoprotein, used as antigen |  |  |  |  | Reactivity of autoantibodies, absorbance (OxLDL EIA) ([4]; healthy controls (n = 17)): 0.351 ± 0.172; Reactivity of autoantibodies, absorbance (OxLDL EIA) ([4]; patients (n = 19)): 0.258 ± 0.170
oxLDL: copper-oxidized low density lipoprotein purified from human plasma, used as antigen |  |  |  |  | oxLDL:natLDL ratio ([4]; healthy controls (n = 17)): 1.886 ± 0.689; Reactivity of autoantibodies, absorbance (OxLDL EIA) ([4]; healthy controls (n = 17)): 0.591 ± 0.221; oxLDL:natLDL ratio ([4]; patients (n = 19)): 2.535 ± 1.430; Reactivity of autoantibodies, absorbance (OxLDL EIA) ([4]; patients (n = 19)): 0.600 ± 0.287
p244: a linear form of p63, which contains two extra amino acids (glycine and cysteine) at both ends of the peptide (CGLSVKAQYKKNKHRHSITNPLGC) |  |  | 0.995— | 19% | average inhibition of the binding of patient samples ([2]; 24 patient samples, p244): 70%
p244cyc: cyclic p244 (CGLSVKAQYKKNKHRHSITNPLGC; also: cyclic (way of cyclisation not given here)) |  |  | 0.734— | 38% | average inhibition of the binding of patient samples ([2]; 8 patient samples, p244cyc): 61%
